Data reported in PMC8072975 (Pharmaceutics, 2021).
Read-outs that look alike come from different tables or passages of the source.

Experiments:
[1] = cited from earlier work
[2] = mean ± SD, n = 3; for Stability 4℃, 5-D (%): Table S1
Experimental: The HPLC analyses were performed on an Agilent Technology 1260 infinity system (Agilent Technology Inc., Waldbronn, Germany) equipped with an Agilent ChemStation software Rev. B.04.03-SP2 (105), a binary pump, a degasser, an autosampler, a thermostatted sample reservoir, a thermostatted column compartment, and a UV-detector. A Capcell-pak C18 UG120 column (4.6 mm × 250 mm, 5 μm, Osaka Soda Co. Ltd., Osaka, Japan) was used as an analytical column. The mobile phase was composed of 10 mM NaH2PO4 (pH 1.61–1.63) and 100% ACN (78:22, v/v) with isocratic elution at pH of 2.0–2.1 using a flow rate of 1.0 mL/min. The sample reservoir and column oven were maintained at 4 °C and 25 °C, respectively. The analytes were detected using a UV detector with the wavelength set at 220 nm, and the injection volume was 25 μL.
(§1) The aqueous supernatant (approximately 100 μL) was prepared as the final sample extract after rinsing with 600 μL of chloroform.
(§2) The recovery of the sample preparation method was estimated by dividing the peak area for the pre-spiked sample by the peak area for the post-spiked sample, multiplied by 100. […] Short- and long-term stability was evaluated after storage at 4 °C for 36 h and −70 °C for 24 days. Freeze-thaw stability was assessed with three freeze-thaw cycles at −70 °C. The post-preparation stability was also examined at 4 °C for 24 h.

SARS-CoV-2 (COVID-19) = settings: read-out: Half-maximal inhibitory concentration (IC50) against SARS-CoV-2; in vitro; preventing viruses' entrance into the cytoplasm; cited from earlier work
[3] = Post-preparation stability of teicoplanin and IS mixture (processed plasma extract); assay type: physicochemical, human; settings: mean ± SD, n = 3
Experimental: as §1, §2

## vancomycin
[1]
  Half-life: ~10 h

## polymyxin B [IS]
[2]; long-term, human plasma, IS 100 mg/L, peak area of polymyxin B2, HPLC-UV 220 nm
  Stability −70 °C, 24-d (%): 112.2 ± 8.74%
[2]; short-term, human plasma, IS 100 mg/L (polymyxin B mixture), peak area of polymyxin B2, HPLC-UV 220 nm
  Stability 4 °C, 36 h (%): 96.19 ± 2.79%
[2]; three freeze-thaw cycles at −70 °C, human plasma, IS 100 mg/L, peak area of polymyxin B2, HPLC-UV
  Stability Freeze-Thaw (%): 111.5 ± 7.36%

## teicoplanin
SARS-CoV-2 (COVID-19)
  IC50: 1.66 µM

## teicoplanin A2-2
[2]; H, 500.0 mg/L
  Stability 4℃, 5-D (%): 101.84 ± 1.59%
[2]; L, 7.81 mg/L
  Stability 4℃, 5-D (%): 100.96 ± 11.32%
[3]; Table S1, H, 500.0 mg/L
  Stability Post-preparation, 7-D (%): 102.58 ± 7.60%
[3]; Table S1, L, 7.81 mg/L
  Stability Post-preparation, 7-D (%): 108.56 ± 24.10%
[3]; Table S1, M, 62.5 mg/L
  Stability Post-preparation, 7-D (%): 105.94 ± 2.00%
